Several values for one entry are separate records, joined by “and”; a condition that tells them apart may be missing. Equal entries are not always repeated. Where two headings read alike, the source gives them in different places.
Legend:
Photostability = format: physicochemical; conditions: 500 μg/mL in 50% aq. MeOH, simulated confirmatory and forced degradation sunlight conditions
Protocol: MeOH also was evaluated under simulated confirmatory and forced degradation sunlight conditions.

[1] = Chemical stability (acid, base, H2O2); format: physicochemical
Protocol: Samples were neutralised and diluted to a nominal concentration of 100 μg/mL in 50% aq MeOH. […] A single degradation peak appeared in all the basic samples corresponding to the urea carboxylic acid hydrolysis product.

[2] = Stability in human cryopreserved hepatocytes; format: in vitro ADME
[3] = Stability in dog cryopreserved hepatocytes; format: in vitro ADME
[4] = Stability in rat cryopreserved hepatocytes; format: in vitro ADME
[5] = Stability in mouse cryopreserved hepatocytes; format: in vitro ADME
[6] = Whole blood to plasma partitioning, human; format: in vitro ADME
[7] = Whole blood-to-plasma ratio, rat; format: in vitro ADME
Protocol: As part of the assessment of the IV pharmacokinetics, an additional blood sample was collected from each rat at 1 h post dose for the purposes of determining the whole blood-to-plasma (B/P) ratio. Arterial blood was collected into tubes containing heparin. The haematocrit was determined via centrifugation (13000×g for 4 min using a Clemets® Microhematocrit centrifuge and Safecap® Plain Self-sealing Mylar Wrapped capillary tubes), and values ranged from 41% to 42%. Each blood aliquot ([…]) was collected and matrix matched with an equivalent volume of blank plasma. The remainder of the blood sample was centrifuged and […] plasma aliquot was collected and matrix matched with an equivalent volume of blank blood. Samples were frozen on dry ice and stored at −80° C. until analysis by LC-MS.

in vivo = experiment: in vivo; parameters: species or system dog; conditions: for clearance: read-out: Plasma CL; for AUC(0-t): read-out: mean AUClast; for C0: read-out: mean plasma concentration extrapolated to time zero (C0); for MTD: Beagle dogs, read-out: maximum tolerated dose (MTD); for NOAEL: male and female Beagle dogs, read-out: no observed adverse effect level (NOAEL)
Protocol: The same 2M/2F dogs were used following 2-week washout periods for each dose level in escalation order. This was a survival study and animals were not sacrificed. The following parameters were evaluated: mortality/morbidity, clinical observations, body weights, plasma drug levels, pharmacokinetics and clinical pathology (hematology, coagulation and serum chemistry).

Binding to HLM = conditions: human liver microsomes
[8] = Whole blood-to-plasma ratio, mouse
[9] = beagle, dog, in vivo, female dogs, iv 1 mg/kg
[10] = beagle, dog, in vivo, male dogs, iv 1 mg/kg
[11] = both sexes, dog, in vivo, single po administration

For `[2H]C([2H])([2H])C1(C([2H])([2H])[2H])NC(=O)N(c2ccc(F)c(C(C)(F)F)c2)C1=O` [Compound IE, 3-(3-(1,1-difluoroethyl)-4-fluorophenyl)-5,5-bis(methyl-d3)imidazolidine-2,4-dione], the “loss of parent compound (photostability)” value (Photostability) was < 3%, the “loss of parent compound, acidic conditions” value ([1]; 0.01 M and 0.1 M HCl, up to 48 h) was “minimal loss” and the “loss of parent compound, basic conditions” value ([1]; 0.01 M and 0.1 M NaOH, after 2 min) was “significant loss”. For the same compound, the “loss of parent compound, 15% H2O2” value ([1]; 15% H2O2 incubation) was “no significant loss”, the CLint [2] was <2 μL/min/10^6 and the hepatocyte CLint ([2]; read-out: in vitro CLint) was < 2000 µL/min/1e6 cells. For the same compound, the CLint ([3]; Dog cryopreserved hepatocytes) was <2 μL/min/10^6, the hepatocyte CLint ([3]; dog cryopreserved hepatocytes, read-out: in vitro CLint) was < 2000 µL/min/1e6 cells and the CLint ([4]; Rat cryopreserved hepatocytes) was <2 μL/min/10^6. For the same compound, the hepatocyte CLint ([4]; rat cryopreserved hepatocytes, read-out: in vitro CLint) was < 2000 µL/min/1e6 cells, the CLint [5] was <2 μL/min/10^6 and the hepatocyte CLint ([5]; read-out: in vitro CLint) was < 2000 µL/min/1e6 cells. For the same compound, the “B:P” value [6] was 0.78±0.035 and 0.78, the “B:P” value [7] was 1.0 and the AUC (in vivo; beagle, dog, in vivo, female dogs (n = 2), IV 1 mg/kg, read-out: Plasma AUCIV 0-last) was 405 µg·h/mL. The clearance (in vivo; beagle, dog, in vivo, female dogs (n = 2), IV 1 mg/kg) was 1.92 mL/h/kg, the AUC (in vivo; beagle, dog, in vivo, female dogs (n = 2), PO 15 mg/kg, read-out: Plasma AUCoral 0-last) was 7030 µg·h/mL and the Cmax (in vivo; beagle, dog, in vivo, female dogs (n = 2), PO 15 mg/kg, read-out: Plasma Cmax) was 42700 ng/mL. It also gave an AUC(0-t) (in vivo; [9]) of 377 µg·h/mL, a Cmax (in vivo; beagle, dog, in vivo, female dogs, iv 1 mg/kg, read-out: mean peak plasma concentration (Cmax)) of 12500 ng/mL and a C0 (in vivo; [9]) of 18800 ng/mL. For the same compound, the AUC (in vivo; beagle, dog, in vivo, male dogs (n = 2), IV 1 mg/kg, read-out: Plasma AUCIV 0-last) was 526 µg·h/mL, the clearance (in vivo; beagle, dog, in vivo, male dogs (n = 2), IV 1 mg/kg) was 1.44 mL/h/kg and the AUC (in vivo; beagle, dog, in vivo, male dogs (n = 2), PO 15 mg/kg, read-out: Plasma AUCoral 0-last) was 8800 µg·h/mL. For the same compound, the Cmax (in vivo; beagle, dog, in vivo, male dogs (n = 2), PO 15 mg/kg, read-out: Plasma Cmax) was 51900 ng/mL, the AUC(0-t) (in vivo; [10]) was 485 µg·h/mL and the Cmax (in vivo; beagle, dog, in vivo, male dogs, iv 1 mg/kg, read-out: mean peak plasma concentration (Cmax)) was 6880 ng/mL. For the same compound, the C0 (in vivo; [10]) was 9460 ng/mL, the Tmax (in vivo; both sexes, beagle, dog, in vivo, dogs, po dose groups 15, 75, 150 mg/kg, read-out: time of peak plasma concentrations (Tmax)) was 0.25 to 24 h and the MTD (in vivo; both sexes, dog, in vivo, 1 mg/kg, single iv administration) was > 1 mg/kg. For the same compound, the MTD (in vivo; [11]) was > 150 mg/kg, the NOAEL (in vivo; both sexes, dog, in vivo, single iv administration) was ≥ 1 mg/kg and the NOAEL (in vivo; [11]) was ≥ 150 mg/kg. The “Bioavailability, determined using AUClast” value (in vivo; both, beagle, dog, in vivo, po) was “greater than 100%”, the “increase in AUClast, 150 mg/kg compared to mid-dose” value (in vivo; both, beagle, dog, in vivo, po, 150 mg/kg) was 2-3 fold and the PlasmaVSS (in vivo; female, beagle, dog, in vivo, iv, 1 mg/kg) was 0.45 L/kg. For the same compound, the half-life (in vivo; female, beagle, dog, in vivo, iv, 1 mg/kg, female dogs (n = 2), IV 1 mg/kg, read-out: Apparent t1/2 (converted)) was 123 h, the half-life (in vivo; female, beagle, dog, in vivo, iv, 1 mg/kg, female dogs, iv 1 mg/kg, read-out: mean elimination phase half-life (t1/2) (converted)) was 152 h and the “BA based on AUC0-last” value (in vivo; female, beagle, dog, in vivo, po, 15 mg/kg) was 115%. For the same compound, the half-life (in vivo; female, beagle, dog, in vivo, po, 150 mg/kg, female dogs, po 150 mg/kg, read-out: mean t1/2 (converted)) was 402 h, the “Apparent t1/2” value (in vivo; male dogs (n = 2), PO 15 mg/kg) was 237 h and the PlasmaVSS (in vivo; male, beagle, dog, in vivo, iv, 1 mg/kg) was 0.36 L/kg. For the same compound, the half-life (in vivo; male, beagle, dog, in vivo, iv, 1 mg/kg, male dogs (n = 2), IV 1 mg/kg, read-out: Apparent t1/2 (converted)) was 155 h, the half-life (in vivo; male, beagle, dog, in vivo, iv, 1 mg/kg, male dogs, iv 1 mg/kg, read-out: mean elimination phase half-life (t1/2) (converted)) was 167 h and the “BA based on AUC0-last” value (in vivo; male, beagle, dog, in vivo, po, 15 mg/kg) was 111%. The half-life (in vivo; male, beagle, dog, in vivo, po, 15 mg/kg, male dogs (n = 2), PO 15 mg/kg, read-out: Apparent t1/2 (converted)) was 237 h, the half-life (in vivo; male, beagle, dog, in vivo, po, 75 mg/kg, male dogs, po 75 mg/kg, read-out: mean t1/2 (converted)) was 341 h and the fraction unbound (Binding to HLM) was 1. The “B:P” value [8] was 1.0.
